{"source": "paper PMC3382786", "about": "“Anti-Hyperglycemic Effect of Chebulagic Acid from the Fruits of Terminalia chebula Retz” (International Journal of Molecular Sciences, 2012)", "key": {"[1]": {"system": "T1, Caco-2 maltase (maltose-hydrolysis activity of α-glucosidase)", "T1 construct": "gene SI; native enzyme on the apical side of differentiated Caco-2 monolayer", "test": "maltose hydrolysis on Caco-2 monolayer, liberated glucose by glucose oxidase", "assay_type": "cell-based, Homo sapiens", "conditions": "28 mM maltose in PBS; 37 °C, 2 h; reversible"}, "[2]": {"target": "T2, rat intestinal α-glucosidase (maltase activity)", "T2 construct": "gene Mgam; crude native enzyme solution from rat intestinal acetone powder (Sigma-Aldrich); maltose hydrolysis; not purified", "test": "maltose hydrolysis, liberated glucose by glucose oxidase", "assay_type": "biochemical", "conditions": "maltose 3.5 mM stock (0.35 of 0.5 mL); 0.1 M potassium phosphate pH 6.3; 37 °C, 15 min; crude enzyme"}}}
{"molecule": "O=C(O)C[C@@H]1C(=O)O[C@H]2[C@@H]3OC(=O)c4cc(O)c(O)c(O)c4-c4c(cc(O)c(O)c4O)C(=O)OC[C@H]2O[C@@H](OC(=O)c2cc(O)c(O)c(O)c2)[C@@H]3OC(=O)c2cc(O)c(O)c3c2[C@H]1[C@H](O)C(=O)O3", "note": "[chebulagic acid]", "values": [{"measurement": "% inhibition at 0.5 mM/well", "setting": "[1]", "value": 73, "unit": "%"}, {"measurement": "IC50", "setting": "[2]", "value": 37, "unit": "µg/mL"}]}
